pIC50: −log10 of the molar value.
Biological target: T1, ATP-dependent MurE ligase (Mycobacterium tuberculosis, UniProt P9WJL3)
T1 sequence (P9WJL3 1-535): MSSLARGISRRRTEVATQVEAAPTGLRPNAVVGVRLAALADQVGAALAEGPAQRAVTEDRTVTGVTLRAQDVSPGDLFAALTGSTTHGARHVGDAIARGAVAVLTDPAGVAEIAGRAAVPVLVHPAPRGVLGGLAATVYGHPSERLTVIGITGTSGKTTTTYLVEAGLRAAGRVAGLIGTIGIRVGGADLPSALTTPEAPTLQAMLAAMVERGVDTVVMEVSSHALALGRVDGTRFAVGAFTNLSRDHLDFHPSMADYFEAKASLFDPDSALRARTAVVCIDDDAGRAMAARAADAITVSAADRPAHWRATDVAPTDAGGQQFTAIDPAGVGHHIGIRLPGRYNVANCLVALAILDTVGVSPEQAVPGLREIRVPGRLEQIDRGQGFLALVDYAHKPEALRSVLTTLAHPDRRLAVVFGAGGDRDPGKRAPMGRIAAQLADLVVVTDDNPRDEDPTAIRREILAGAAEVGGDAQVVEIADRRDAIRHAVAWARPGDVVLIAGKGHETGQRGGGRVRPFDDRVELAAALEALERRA
Assay: biochemical

SMILES: C=CC(C)(C)c1c(OC)oc(-c2ccccc2)cc1=O [compound 2, hyperenone A]
- pIC50: 3.49
